Patent US20230203041A1, “ANTAGONISTS OF THE ADENOSINE A2A RECEPTOR” (AdoRx Therapeutics Limited, priority 2020, published 2023)

Key:
[1] = biological target: T1, human Adenosine A1 receptor (Homo sapiens, UniProt P30542); assay: Adenosine receptor TR-FRET binding assay (CA200645 displacement), A1
T1 sequence (P30542 1-326): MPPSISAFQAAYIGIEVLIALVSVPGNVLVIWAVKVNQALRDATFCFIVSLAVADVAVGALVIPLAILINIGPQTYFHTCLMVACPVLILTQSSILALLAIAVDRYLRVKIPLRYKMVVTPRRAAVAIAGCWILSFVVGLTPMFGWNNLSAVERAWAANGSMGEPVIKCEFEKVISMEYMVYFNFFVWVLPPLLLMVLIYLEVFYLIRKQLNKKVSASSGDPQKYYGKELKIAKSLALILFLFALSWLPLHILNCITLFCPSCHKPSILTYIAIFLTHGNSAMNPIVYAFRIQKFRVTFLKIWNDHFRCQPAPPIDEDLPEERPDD

[2] = tested on: CD8+ T cells in human whole blood; assay: Measurement of pCREB in CD8+ T cells in human whole blood; assay type: cell-based; conditions: T-cell, 1 h; heparinised human whole blood, rolipram, 3 μM NECA, 60 min, phospho-CREB in CD8+ T cells by FACS
How it was run: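 Heparinised human whole blood preincubated 20 min at 37 °C with serially diluted A2a antagonists plus rolipram, then stimulated 60 min with 3 μM NECA (final). After fixation and RBC lysis, permeabilized leukocytes stained for phospho-CREB and CD8; pCREB in CD8+ T cells read by flow cytometry.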

human PBMCs = assay: CD3/CD28 stimulated IL-2 release NECA reversal assay in human PBMCs; assay type: cell-based; conditions: PBMC, CD3/CD28 antibody stimulated, 1 uM NECA, 24 hours, IL-2 in culture supernatant;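 further: dose-response as % inhibition where 100% equals no-NECA control wells with CD3/CD28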
How it was run: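 PBMCs from citrated donor blood, 50,000 cells/well on plate-bound CD3 antibody (1 ug/ml), with 1 ug/ml CD28 antibody, 1 uM NECA and antagonist at 0.003-10 μM final. After 24 h at 37° C, supernatant IL-2 was measured by MSD immunoassay.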

[3] = biological target: T2, human Adenosine A2b receptor (Homo sapiens, UniProt P29275); assay: Adenosine receptor TR-FRET binding assay (CA200645 displacement), A2b; conditions: 30 nM CA200645, CHO cell membranes, 2 hours at room temperature
T2 construct: expressed in transfected cells; host or cells: CHO cell membranes
T2 sequence (P29275 1-332): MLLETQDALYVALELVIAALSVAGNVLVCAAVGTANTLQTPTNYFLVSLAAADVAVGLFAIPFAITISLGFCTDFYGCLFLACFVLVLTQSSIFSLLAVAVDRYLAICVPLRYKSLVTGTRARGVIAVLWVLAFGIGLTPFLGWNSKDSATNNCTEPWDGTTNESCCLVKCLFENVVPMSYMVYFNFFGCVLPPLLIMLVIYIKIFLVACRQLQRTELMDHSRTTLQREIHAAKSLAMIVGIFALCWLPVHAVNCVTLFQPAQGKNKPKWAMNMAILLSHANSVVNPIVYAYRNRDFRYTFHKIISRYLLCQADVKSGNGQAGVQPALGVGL

[4] = biological target: T3, human Adenosine A3 receptor (Homo sapiens, UniProt P0DMS8); assay: Adenosine receptor TR-FRET binding assay (CA200645 displacement), A3
T3 sequence (P0DMS8 1-318): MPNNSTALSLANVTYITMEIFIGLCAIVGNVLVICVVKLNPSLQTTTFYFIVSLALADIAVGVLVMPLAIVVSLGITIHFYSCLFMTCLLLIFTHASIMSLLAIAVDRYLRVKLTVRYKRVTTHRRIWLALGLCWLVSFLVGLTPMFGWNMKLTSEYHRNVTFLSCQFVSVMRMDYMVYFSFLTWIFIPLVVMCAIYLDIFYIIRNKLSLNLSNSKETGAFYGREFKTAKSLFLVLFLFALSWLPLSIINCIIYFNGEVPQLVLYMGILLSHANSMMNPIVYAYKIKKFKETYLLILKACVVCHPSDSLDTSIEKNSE

[5] = biological target: T4, human Adenosine A2a receptor (Homo sapiens, UniProt P29274); assay: Adenosine receptor TR-FRET binding assay (CA200645 displacement), A2a; conditions: 100 nM CA200645, CHO cell membranes, 2 hours at room temperature
T4 construct: expressed in transfected cells; host or cells: CHO cell membranes
T4 sequence (P29274 whole entry): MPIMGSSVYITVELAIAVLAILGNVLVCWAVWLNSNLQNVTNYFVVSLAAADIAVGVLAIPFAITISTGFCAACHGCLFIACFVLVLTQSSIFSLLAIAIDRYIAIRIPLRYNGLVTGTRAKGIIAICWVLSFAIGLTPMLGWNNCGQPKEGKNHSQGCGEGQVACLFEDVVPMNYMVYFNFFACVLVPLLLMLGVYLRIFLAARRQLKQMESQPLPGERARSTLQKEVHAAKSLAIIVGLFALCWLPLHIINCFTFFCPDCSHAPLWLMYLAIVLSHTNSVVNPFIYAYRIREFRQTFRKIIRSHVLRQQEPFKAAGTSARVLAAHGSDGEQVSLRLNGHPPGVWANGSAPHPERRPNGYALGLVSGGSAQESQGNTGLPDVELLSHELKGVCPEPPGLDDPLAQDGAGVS

Ki [1] [nM]	IC50 [2] [nM]	Ki [3] [nM]	Ki [4] [nM]	Ki [5] [nM]	Compound	IC50 (human PBMCs) [nM]
61	100	5	1910	0.1	Cc1cc(-c2c(-c3cccc(C#N)c3)nn3ccc(C(=O)NC(C)(C)CO)nc23)cc(Cl)n1 [Example 6.22, 3-(2-Chloro-6-methyl-4-pyridyl)-2-(3-cyanophenyl)-N-(2-hydroxy-1,1-dimethyl-ethyl)pyrazolo[1,5-a]pyrimidine-5-carboxamide]	2.5
204	560	19	> 1000	0.7	Cc1cc(-c2c(-c3cccc(C#N)c3)nn3ccc(C(=O)N[C@H]4C[C@@H](O)C4)nc23)cc(Cl)n1 [Example 6.20, 3-(2-Chloro-6-methyl-4-pyridyl)-2-(3-cyanophenyl)-N-(cis-3-hydroxycyclobutyl)pyrazolo[1,5-a]pyrimidine-5-carboxamide]	36.3
148	150	12	1550	0.1	Cc1cc(-c2c(-c3cccc(C#N)c3)nn3ccc(C(=O)NCC(C)(C)O)nc23)cc(C(F)F)n1 [Example 12.4, 2-(3-Cyanophenyl)-3-[2-(difluoromethyl)-6-methyl-4-pyridyl]-N-(2-hydroxy-2-methyl-propyl)pyrazolo[1,5-a]pyrimidine-5-carboxamide]	4
232	160	2	> 1000	0.9	Cc1cc(-c2c(-c3cccc(C#N)c3)nn3ccc(C(=O)NCC(C)(O)CO)nc23)cc(Cl)n1 (stereo not drawn) [Example 6.9, 3-(2-Chloro-6-methyl-4-pyridyl)-2-(3-cyanophenyl)-N-(2,3-dihydroxy-2-methyl-propyl)pyrazolo[1,5-a]pyrimidine-5-carboxamide]	10
424	390	17	> 1000	1.7	Cc1cc(-c2c(-c3cccc(C#N)c3)nn3ccc(C(=O)NC[C@H](O)CO)nc23)cc(Cl)n1 [Example 6.13, 3-(2-Chloro-6-methyl-4-pyridyl)-2-(3-cyanophenyl)-N-[(2S)-2,3-dihydroxypropyl]pyrazolo[1,5-a]pyrimidine-5-carboxamide]	32
20	100	4	1410	0.1	Cc1cc(-c2c(-c3cccc(C#N)c3)nn3ccc(C(=O)N[C@@H](C)[C@H](O)CO)nc23)cc(Cl)n1 [Example 7.19, 3-(2-Chloro-6-methyl-4-pyridyl)-2-(3-cyanophenyl)-N-[(1S,2S)-2,3-dihydroxy-1-methyl-propyl]pyrazolo[1,5-a]pyrimidine-5-carboxamide]	4
324	350	25	> 1000	1.6	Cc1cc(-c2c(-c3cccc(C#N)c3)nn3ccc(C(=O)NC45CC(O)(C4)C5)nc23)cc(C)n1 [Example 92.2]	17
116	1050	8	2600	1.4	Cc1cc(-c2c(-c3cccc(C#N)c3)nn3ccc(NC(=N)N)nc23)cc(Cl)n1 [Example 16.1, 1-[3-(2-Chloro-6-methyl-4-pyridyl)-2-(3-cyanophenyl)pyrazolo[1,5-a]pyrimidin-5-yl]guanidine]	77

Continued, compound first:

Compound	Ki [1] [nM]	IC50 [2] [nM]	Ki [3] [nM]	Ki [4] [nM]	Ki [5] [nM]	IC50 (human PBMCs) [nM]
Cc1cc(-c2c(-c3cccc(C#N)c3)nn3ccc(OCC(C)(C)O)nc23)cc(Cl)n1 [Example 15, 3-[3-(2-Chloro-6-methyl-4-pyridyl)-5-(2-hydroxy-2-methyl-propoxy)pyrazolo[1,5-a]pyrimidin-2-yl]benzonitrile]	46	380	9	1920	1.2	2
Cc1cc(-c2c(-c3cccc(C#N)c3)nn3ccc(NC(=O)C(C)(C)O)nc23)cc(Cl)n1 [Example 94, N-[3-(2-Chloro-6-methyl-4-pyridyl)-2-(3-cyanophenyl)pyrazolo[1,5-a]pyrimidin-5-yl]-2-hydroxy-2-methyl-propanamide]	124	1720	3	> 1000	1	27
Cc1cc(-c2c(-c3cccc(C#N)c3)nn3ccc(NCC4(O)COC4)nc23)cc(Cl)n1 [Example 2.8]	62	610	3	> 1000	1.3	41
Cc1cc(-c2c(-c3cccc(C#N)c3)nn3ccc(NC45CC(O)(C4)C5)nc23)cc(Cl)n1 [Example 2.1]	21	1440	3	> 1000	0.4	12
Cc1cc(-c2c(-c3cccc(C#N)c3)nn3ccc(NC[C@H](C)O)nc23)cc(Cl)n1 [Example 3.1]	58	560	5	2600	2.2	23
Cc1cc(-c2c(-c3cccc(C#N)c3)nn3ccc(OC4CCNCC4)nc23)cc(Cl)n1 [Example 24, 3-[3-(2-Chloro-6-methyl-4-pyridyl)-5-(4-piperidyloxy)pyrazolo[1,5-a]pyrimidin-2-yl]benzonitrile]	216	3630	16	> 1000	0.6	51
Cc1cc(-c2c(-c3cccc(C#N)c3C)nn3ccc(C(=O)NCC(C)(C)O)nc23)cc(C)n1 [Example 103, 2-(3-Cyano-2-methyl-phenyl)-3-(2,6-dimethyl-4-pyridyl)-N-(2-hydroxy-2-methyl-propyl)pyrazolo[1,5-a]pyrimidine-5-carboxamide]	298	30	22	> 1000	0.3	24
Cc1cc(-c2c(-c3cccc(C#N)c3)nn3ccc(C(=O)N[C@@H](C)C(C)(C)O)nc23)cc(Cl)n1 [Example 6, 3-(2-Chloro-6-methyl-4-pyridyl)-2-(3-cyanophenyl)-N-[(1S)-2-hydroxy-1,2-dimethyl-propyl]pyrazolo[1,5-a]pyrimidine-5-carboxamide]	57	30	6	945	0.1	2
Cc1cc(-c2c(-c3cccc(C#N)c3)nn3ccc(NCCC(C)(C)O)nc23)cc(Cl)n1 [Example 2.9]	31	70	19	> 1000	1.4	19
Cc1cc(-c2c(-c3cccc(C#N)c3)nn3ccc(NCC(C)(C)O)nc23)cc(C(F)F)n1 [Example 23, 3-[3-[2-(Difluoromethyl)-6-methyl-4-pyridyl]-5-[(2-hydroxy-2-methyl-propyl)amino]pyrazolo[1,5-a]pyrimidin-2-yl]benzonitrile]	42	390	53	> 1000	0.6	20
Cc1cc(-c2c(-c3cccc(C#N)c3)nn3ccc(N[C@H](C)C(C)(C)O)nc23)cc(Cl)n1 [Example 2.20]	263	660	18	> 1000	3.4	68
Cc1cc(-c2c(-c3cccc(C#N)c3)nn3ccc(N[C@@H]4COC[C@@H]4O)nc23)cc(Cl)n1 [Example 2.16]	232	390	4	> 1000	2.1	7
